Test results taken from patent US3950527A, “N-[ω-(4'-(3"-indolyl)-piperidino)-alkyl]-benzamides” (Roussel-UCLAF, priority 1974, dated 1976).

Tests used:
[1] = test system: mouse; experiment: Chimney Test (neurosedative activity); format: in vivo; settings: ip, 0.5 h, mice, intraperitoneal, 30 minutes after administration, read-out: DE50, Chimney Test
Protocol: This test consisted of placing a mouse in the end of a glass tube 30 cm long with a diameter adapted to the size of the mouse. The tube was straightened vertically in a rapid manner with the head of the mouse at the base. The normal uprighting time for the mouse in the tube was less than 30 seconds. The test was conducted 30 minutes after intraperitoneal administration of the test product and the DE50 dose was determined and is reported in Table I.

[2] = test system: mouse; experiment: Traction Test (neurosedative activity); format: in vivo; settings: ip, 0.5 h, mice, intraperitoneal, 30 minutes after administration, dose at which 50% of the animals do not reestablish themselves in 5 seconds, read-out: DE50, Traction Test
Description: This test consisted of suspending a mouse by the front paws from a horizontal metal wire and in a time of less than 5 seconds, the normal mouse will effect a reestablishment by managing to place at least one hind paw on the wire. […]

[3] = Acute toxicity; settings: mouse, in vivo, ip; mice, intraperitoneal, mortality after 48 hours; read-out: DL50, acute toxicity
Protocol: The acute toxicity was determined by intraperitoneal administration of the test compounds to mice in increasing doses and determination of the mortality after 48 hours to determine the DL50 dose.

[4] = Antagonism to toxicity of amphetaminic compounds; format: in vivo; settings: Mus musculus, ip; male mice, intraperitoneal 30 minutes before 15 mg/kg i.p. dexamphetamine sulfate; group mortality at 24 hours; read-out: DE50, Antagonism to toxicity of amphetamines
Protocol: C. Antagonism to toxicity of amphetaminic compounds
This test was determined on groups of 10 male mice in a crystallizer with a 20 cm diameter and a 9 cm height covered with a grill. The animals received an intraperitoneal injection of 15 mg/kg of dexamphetamine sulfate 30 minutes after intraperitoneal administration of the test product. The group mortality was counted 24 hours after the injection of dexamphetamine sulfate and the DE50 dose was determined.

[5] = Antagonism to stereotypes provoked by apomorphine; format: in vivo; settings: Rattus norvegicus, ip; male rats, intraperitoneal 30 minutes before 1.5 mg intravenous apomorphine hydrochloride; read-out: DE50, antagonism to stereotypes provoked by apomorphine
Protocol: B. Antagonism to sterotypes provoked by apomorphine
(§1) This test used groups of 5 male rats in a test inspired by Janssen et al. [Arzn. Forsch., Vol. 15 (1965), p. 104-117 and Vol. 17 (1967), p. 841-854] with each rat in an individual grill cage. Each animal received an intravenous injection in the vein of the penis of 1.5 mg of apomorphine hydrochloride 30 minutes after intraperitoneal administration of the test compound. The animals, control and treated, were observed 1,5,10 and 15 minutes after the last injection and the stereotype movements of the buccal sphere were evaluated for their intensity on a scale of 0 to 3 as by Boissier et al. [Therapie., Vol. 25 (1970), p. 939-949]. The height of the test was determined and the DE50 dose was ascertained to be 10 mg/kg.

[6] = Antagonism to vomitting provoked by apomorphine; format: in vivo; settings: Canis lupus familiaris, sc, 0.5 h; dogs, subcutaneous 30 minutes before 0.1 mg/kg s.c. apomorphine hydrochloride; vomitting counted over one half hour; read-out: DE50, antagonism to vomitting provoked by apomorphine
Protocol: C. Antagonism to vomitting provoked by apomorphine
This test was effected on dogs as reported by Chen et al. [J. Pharmac. exp. Therap. Vol. 93 (1950), p. 245-250]. The test product was subcutaneously administered 30 minutes before subcutaneous administration of 0.1 mg/kg of apomorphine hydrochloride. […] The cross tests were repeated after 8 days on lots of 2 dogs and the DE50 dose was determined to be 0.005 mg/kg.

[7] = Antipsychotic activity, overall conclusion from the tests on the product of Example 2; settings: in vivo
Protocol: This test consisted of using groups of 5 rats which were placed in individual grill cages. The rats received intraperitoneally 8 mg/kg of dexamphetamine sulfate 30 minutes after intraperitoneal administration of the test products and the test used controls and treated animals. The rating scale was that described by Halliwel et al. [Brit. J. Pharmacol., Vol. 23 (1964), p. 330-350] and the DE50 of the product was […].
as §1
This test was effected on dogs as reported by Chen et al. [J. Pharmac. exp. Therap. Vol. 93 (1950), p. 245-250]. […] The cross tests were repeated after 8 days on lots of 2 dogs and the DE50 dose was determined to be 0.005 mg/kg.

[8] = Cataleptic Power; format: in vivo, young rats; settings: for cataleptic activity (in words): rat, in vivo
Protocol: D. Cataleptic Power This test is described by Boissier et al. [Therapie., Vol. 18 (1963), p. 1257-1277] and was effected on young rats by crossing the homolateral paws and noting the intensity of catalepsy. The test product was intraperitoneally administered and the DE50 was formed to be greater than 60 mg/kg.

[9] = listed as acid succinate of N-[β-(4'-(3"-indolyl)-piperidino)-ethyl]-4-fluoro-benzamide

| SMILES | ED50 [1] [mg/kg] | ED50 [2] [mg/kg] | LD50 at 48 h [3] [mg/kg] | ED50 [4] [mg/kg] | ED50 [5] [mg/kg] | ED50 [6] [mg/kg] | antipsychotic activity (in words) [7] | antipsychotic activity (in words) [7, 9] | ED50 ([8]; Rattus norvegicus, ip, young rats, intraperitoneal, crossing the homolateral paws, read-out: DE50, cataleptic power) [mg/kg] | cataleptic activity (in words) [8] | cataleptic activity (in words) [8, 9] |
| --- | --- | --- | --- | --- | --- | --- | --- | --- | --- | --- | --- |
| O=C(NCCN1CCC(c2c[nH]c3ccccc23)CC1)c1ccccc1 [Example 1, N-[β-(4'-(3"-indolyl)-piperidino)-ethyl]-benzamide] | 7 | 18 | 300 | 3 |  |  |  |  |  |  |  |
| O=C(NCCN1CCC(c2c[nH]c3ccccc23)CC1)c1ccc(F)cc1 [Example 2, N-[β-(4'-(3"-indolyl)-piperidino)-ethyl]-p-fluoro-benzamide acid succinate] | 2 | 6.5 | 125 | 0.3 | 10 | 0.005 | important antipsychotic activity | antipsychotic activity | > 60 | practically devoid of cataleptigenic activity | without cataleptic properties |
| O=C(NCCCN1CCC(c2c[nH]c3ccccc23)CC1)c1ccc(F)cc1 [Example 3, N-[γ-(4'-(3"-indolyl)-piperidino)-propyl]-p-fluorobenzamide] | 5 | 20 | 60 | 8 |  |  |  |  |  |  |  |
| COc1cc(F)ccc1C(=O)NCCN1CCC(c2c[nH]c3ccccc23)CC1 [Example 4, N-[β-(4'-(3"-indolyl)-piperidino)-ethyl]-p-fluoro-o-methoxy-benzamide] | 4.5 | 8.5 | > 800 | 0.35 |  |  |  |  |  |  |  |
| COc1ccc2c(C3CCN(CCNC(=O)c4ccc(F)cc4)CC3)c(C)[nH]c2c1 [Example 5, N-[β-(4'-(2"-methyl-6"-methoxy-3"-indolyl)-piperidino)-ethyl]-p-fluoro-benzamide] | 17 | 25 | 400 | 3 |  |  |  |  |  |  |  |
| COc1cc(N)c(Cl)cc1C(=O)NCCN1CCC(c2c[nH]c3ccccc23)CC1 [Example 7, N-[β-(4'-(3"-indolyl)-piperidino)-ethyl]-2-methoxy-4-amino-5-chloro-benzamide] |  |  | > 800 |  |  |  |  |  |  |  |  |
| COc1ccc(S(N)(=O)=O)cc1C(=O)NCCN1CCC(c2c[nH]c3ccccc23)CC1 [Example 8, N-[β-(4'-(3"-indolyl)-piperidino)-ethyl]-2-methoxy-5-sulfamoyl-benzamide] |  |  | 800 |  |  |  |  |  |  |  |  |
